Reference: ChEMBL document CHEMBL1147417, “Synthesis of new thiophene and benzo[b]thiophene hydrazide derivatives as human NPY Y(5) antagonists” (Bioorg Med Chem Lett, 2004)
pIC50: −log10 of the molar value.

How the values were obtained:
[1] = target: T1, Neuropeptide Y receptor type 1 (Homo sapiens, UniProt P25929); experiment: Human Neuropeptide Y1 receptor binding affinity
T1 sequence (P25929 whole entry): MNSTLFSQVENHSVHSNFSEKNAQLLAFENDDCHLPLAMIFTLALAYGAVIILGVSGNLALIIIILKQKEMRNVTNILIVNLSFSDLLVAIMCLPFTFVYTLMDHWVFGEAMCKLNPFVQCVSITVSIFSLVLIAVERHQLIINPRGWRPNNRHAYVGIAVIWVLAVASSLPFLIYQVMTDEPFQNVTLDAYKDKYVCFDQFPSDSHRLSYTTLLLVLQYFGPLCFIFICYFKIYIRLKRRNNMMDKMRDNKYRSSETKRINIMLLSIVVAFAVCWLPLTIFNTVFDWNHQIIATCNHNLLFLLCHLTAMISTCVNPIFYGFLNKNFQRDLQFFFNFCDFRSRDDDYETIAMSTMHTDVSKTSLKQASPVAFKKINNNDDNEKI

[2] = target: T2, Neuropeptide Y receptor type 5 (Homo sapiens, UniProt Q15761); experiment: Human Neuropeptide Y5 receptor binding affinity
T2 sequence (Q15761 whole entry): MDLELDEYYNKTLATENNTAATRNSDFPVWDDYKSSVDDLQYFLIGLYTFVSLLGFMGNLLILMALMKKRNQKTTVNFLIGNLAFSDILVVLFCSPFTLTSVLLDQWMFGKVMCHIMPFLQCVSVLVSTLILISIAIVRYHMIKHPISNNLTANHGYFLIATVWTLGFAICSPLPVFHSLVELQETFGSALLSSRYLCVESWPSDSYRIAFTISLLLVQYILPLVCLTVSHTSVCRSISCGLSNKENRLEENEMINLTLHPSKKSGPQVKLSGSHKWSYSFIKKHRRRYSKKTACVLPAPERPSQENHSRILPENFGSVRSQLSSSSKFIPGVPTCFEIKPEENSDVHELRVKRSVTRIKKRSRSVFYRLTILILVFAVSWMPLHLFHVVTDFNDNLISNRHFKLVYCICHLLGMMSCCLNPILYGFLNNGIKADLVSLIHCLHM

SMILES | pIC50 [1] | pIC50 [2]
Cc1ccc(S(=O)(=O)NC[C@H]2CC[C@H](C(=O)NNC(=O)c3cccs3)CC2)cc1 | < 5.00 | 7.69
O=C(NNC(=O)[C@H]1CC[C@H](CNS(=O)(=O)c2cccs2)CC1)c1cccs1 | < 5.00 | 7.90
O=C(NNC(=O)[C@H]1CC[C@H](CNS(=O)(=O)c2cccc3cccnc23)CC1)c1cccs1 | < 5.00 | 6.83
CC(C)c1cc(C(C)C)c(S(=O)(=O)NC[C@H]2CC[C@H](C(=O)NNC(=O)c3cccs3)CC2)c(C(C)C)c1 | < 5.00 | 7.32
CC(C)c1cc(C(C)C)c(S(=O)(=O)NC[C@H]2CC[C@H](C(=O)NNC(=O)c3cc4ccccc4s3)CC2)c(C(C)C)c1 | < 5.00 | 6.85
O=C(NNC(=O)[C@H]1CC[C@H](CNS(=O)(=O)c2ccccc2)CC1)c1cccs1 | < 5.00 | 7.49

Other lines, results leading:

pIC50 [1] | pIC50 [2] | SMILES
< 5.00 | 6.55 | O=C(NNC(=O)[C@H]1CC[C@H](CNS(=O)(=O)c2ccc(Cl)cc2)CC1)c1cc2ccccc2s1
< 5.00 | 7.94 | O=C(NNC(=O)[C@H]1CC[C@H](CNS(=O)(=O)c2cccs2)CC1)c1cc2ccccc2s1
< 5.00 | 7.55 | O=C(NNC(=O)[C@H]1CC[C@H](CNS(=O)(=O)c2ccc(Br)cc2)CC1)c1cc2ccccc2s1
< 5.00 | 7.04 | O=C(NNC(=O)[C@H]1CC[C@H](CNS(=O)(=O)c2cccc3cccnc23)CC1)c1cc2ccccc2s1
< 5.00 | 8.11 | O=C(NNC(=O)[C@H]1CC[C@H](CNS(=O)(=O)c2ccc(Br)cc2)CC1)c1cccs1
< 5.00 | 7.32 | O=C(NNC(=O)[C@H]1CC[C@H](CNS(=O)(=O)c2ccc(Cl)cc2)CC1)c1cccs1
< 5.00 | 7.37 | Cc1ccc(S(=O)(=O)NC[C@H]2CC[C@H](C(=O)NNC(=O)c3cc4ccccc4s3)CC2)cc1
< 5.00 | 6.76 | O=C(NNC(=O)[C@H]1CC[C@H](CNS(=O)(=O)c2ccccc2)CC1)c1cc2ccccc2s1
